Experimental data from patent US20210346394A1, “Remyelination Therapy” (The Regents of the University of California, priority 2016, published 2021).

Columns and labels:
[1] = system: demyelinated lesion in corpus callosum; assay: Lysolecithin-induced demyelination of the corpus callosum; assay type: in vivo; settings: mice, 10 mg/kg for 7 days after lysolecithin, 10 days post injection, vs vehicle
Experimental: Example 5. Effects of BZA on OPC Differentiation. Lysolecithin was injected in the corpus callosum of mice and analyzed at 6 days after injection, showing a demyelinated lesion area. Mice were treated with either BZA (10 mg/kg) or vehicle control for 7 days after injection of lysolecithin. Mice were euthanized at 10 days post injection and brains were sectioned and immunostained for myelin oligodendrocyte glycoprotein peptide (MOG), Adenomatous polyposis coli (APC-a maker of mature oligodendrocytes) and Olig2. Quantification of APC-positive cells indicated a 2-fold increase in remyelination in the corpus callosum after treatment with BZA, as depicted in FIG. 3.
Example 6. BZA effects on remyelination kinetics. Toxic, focal demyelinating injury was induced in the corpus callosum of 8-week old adult mice the rate and extent of remyelination was assessed, using previously described methodology. Demyelination was induced by injecting 1 μl of 1% solution of lysolecithin. Essential to this demyelinating model is the timeline for repair, comprising active demyelination [1-3 days post lesion (dpl)], OPC recruitment (3-7 dpl, peaking at 5 dpl), oligodendrocyte differentiation (7-10 dpl) and active remyelination (14-21 dpl). Oligodendrocyte differentiation and remyelination at 10 dpl was analyzed, allowing assessment of BZA effects on the kinetics of myelin repair. […]

[2] = system: OPCs derived from WT P7 rat pups; assay: Differentiation of isolated OPCs treated with SERMs (MBP/PDGFRα/DAPI immunostaining); assay type: cell-based; settings: 500 nM for 48 hours
Experimental: Example 3. OPC Differentiation. To assess the effect of selected SERMs on myelination, OPCs were derived from WT P7 rat pups using previously validated methodology, cultured in isolation, and treated with a select group of SERMs at a preliminary concentration of 500 nM for 48 hours. Cells were then permeabilized and immunostained for MBP (oligodendrocytes), PDGFRα (OPCs), and DAPI (cell bodies).

Cc1c(-c2ccc(O)cc2)n(Cc2ccc(OCCN3CCCCCC3)cc2)c2ccc(O)cc12 [BZA, bazedoxifene]
increase in remyelination (APC-positive cells) in the corpus callosum [1]: 2 fold

CC/C(=C(\c1ccccc1)c1ccc(OCCN(C)C)cc1)c1ccccc1 [tamoxifen]
OPC differentiation [2]: significantly enhanced OPC differentiation

N#CC(Cc1ccc(O)cc1)c1ccc(O)cc1 (stereo not drawn) [2,3-bis(4-hydroxyphenyl)-propionitrile]
OPC differentiation [2]: significantly enhanced OPC differentiation
